According to patent US20100267626A1, “METHODS AND COMPOSITIONS FOR MEASURING WNT ACTIVATION AND FOR TREATING WNT-RELATED CANCERS” (Novartis AG, priority 2007, published 2010):
Peptide text beside a SMILES is read from it. * marks the point of attachment. Cbz = O=C(OCc1ccccc1)*

What was measured:
DLD-1 cells = assay: Colony formation assay, DLD-1 cells; format: cell-based; settings: low serum growth conditions
Protocol: FIG. 6A. […] DLD1 and RKO cells were seeded at […] in a 6-well plate in medium containing 0.5% serum and indicated compounds, and replenished with fresh medium every two days. Colonies were visualized by crystal violet staining.
FIG. 6B. […] DLD1 cells were transfected with siRNAs against Axin1 and Axin2, and seeded at 1000 cells/well in a 6-well plate. The compound treatment was carried out as described in 6A.
(§1) The colony formation assay was performed as follows: DLD1 and RKO cells were seeded in low serum growth medium (0.5% FBS) at 500 and 1000 cells/well, respectively, into […]. Sixteen hours after plating, compounds were added at the indicated concentrations. Medium was replenished every two days until colony formation was observed. Colonies were stained by a solution of 2 mg/ml crystal violet in buffered formalin and imaged on a Molecular Imager ChemiDoc XRS System (BioRad).

PARP1/2 = assay: Dose response compound competition experiment (immunoblot); settings: doses 1 nM to 100 μM
TNKS = settings: doses 1 nM to 100 μM
[1] = biological target: C-terminal PARP domain of TNKS2 (GST-TNKS2 PARP) (Homo sapiens, UniProt Q9H2K2); assay: In vitro auto-PARsylation assay of TNKS2
Excerpt: Tankyrase, utilizing NAD^+, catalyzes poly(ADP-ribosyl)ation of itself (autoparsylation) or targeted proteins (substrate parsylations). In each reaction turnover, the enzyme consumes one unit of NAD^+, add one unit of ADP-ribose to the polymer chain, releases one unit of nicotinamide. The autoparsylation activity assay is designed to monitor the nicotinamide formation and the reduction in the nicotinamide formation in the presence of tankyrase small molecule inhibitors. The quantification of nicotinamide is carried out by liquid chromatography/mass spectrometry (LC/MS).
Prior to LC/MS analysis, the protein in the reaction mixture was removed by precipitation/centrifugation method after added two aliquots of acetonitrile.

[2] = system: Wnt3A stimulated STF activity; assay: Wnt-responsive Super-Topflash (STF) luciferase reporter assay in HEK293 cells; format: cell-based
Excerpt: The corresponding reporter activity for each compound dilution was normalized to DMSO and expressed as a percentage of the reporter activity in DMSO.
To identify small molecule inhibitors of the Wnt/β-catenin pathway, a high-throughput compound screen was employed, with over one million compounds, using a Wnt-responsive Super-Topflash (STF) luciferase reporter assay in HEK293 cells.

Axin1 and Axin2 [3] = assay: Axin ubiquitination in SW480 cells (immunoprecipitation/immunoblot); format: cell-based, human
Excerpt: The position that Axin1 migrates is labeled with an arrow.
FIG. 5E. […] (IP: immunoprecipitation, TCL: total cell lysates)

TGFβ luciferase reporter = assay: TGFβ (CAGA12) luciferase reporter in HEK293 cells; format: cell-based
PARP2 = PARP2 (Homo sapiens, UniProt Q9UGN5); assay: iTRAQ quantitative chemical proteomics competition, HEK293 cell lysates; format: binding; settings: 20 μM soluble compound, relative to DMSO
Protocol: By using iTRAQ, a chemical peptide labeling technique, the 3 samples were multiplexed and quantified binding displacement (% competition) relative to the vehicle (DMSO) by LC-MS/MS analysis.
Sequencing was performed by liquid chromatography-tandem mass spectrometry on a LTQ-Orbitrap mass spectrometer (Thermo-Finnigan). Tandem mass spectra were generated using pulsed-Q dissociation, enabling detection of iTRAQ reporter ions. Peptide mass and fragmentation data were used to query an in-house curated version of the IPI database using Mascot (Matrix Science). Protein identifications were validated using a decoy database. iTRAQ reporter ion-based quantification was performed with in-house developed software.
Lysate was pre-cleared by centrifugation and protein concentration measured by Bradford assay. […] Then 100 μl of negative control-matrix was added and incubation resumed at 4° C. for another 60 min. After centrifugation, beads were transferred into a column (MoBiTech) and washed.

Axin2 = assay: PARsylation of endogenous Axin2 in compound wash-off experiment; settings: MG132 plus XAV939
Protocol: Post-translational modification of Axin2 in a compound wash-off experiment. […] Cell lysates were harvested with RIPA buffer, immunoprecipitated with anti-Axin2 antibody, and analyzed by immunoblotting.
Total cell lysates were prepared by cell lysis in RIPA buffer (50 mM Tris-HCl, pH 7.4, 150 mM NaCl, 1% NP-40, 0.5% sodium deoxycholate, 0.1% SDS, 1 mM EDTA). Equal amount of proteins were resolved by SDS-PAGE, transferred to nitrocellulose membranes and probed with indicated antibodies. For co-immunoprecipitation experiments, cells were lysed in EBC buffer (50 mM Tris-HCl, pH 7.4, 150 mM NaCl, 0.5% NP-40, 1 mM EDTA), cleared cell lysates were incubated with indicated antibodies and Protein G-sepharose beads overnight at 4° C. The beads were washed five times with lysis buffer. The bound proteins were dissolved in SDS sample buffer, resolved by SDS-PAGE, and blotted with indicated antibodies. To detect protein ubiquitination and PARsylation in vivo, cells were lysed with RIPA buffer supplemented with 5 mM NEM and 5 μM ADP-HPD to block the activities of Deubiquitinase and PARG, and followed by immunoprecipitation with indicated antibodies.

Axin-GSK3β complex = Axin-GSK3β complex formation
Protocol: Total cell lysates were prepared by cell lysis in RIPA buffer (50 mM Tris-HCl, pH 7.4, 150 mM NaCl, 1% NP-40, 0.5% sodium deoxycholate, 0.1% SDS, 1 mM EDTA). Equal amount of proteins were resolved by SDS-PAGE, transferred to nitrocellulose membranes and probed with indicated antibodies. For co-immunoprecipitation experiments, cells were lysed in EBC buffer (50 mM Tris-HCl, pH 7.4, 150 mM NaCl, 0.5% NP-40, 1 mM EDTA), cleared cell lysates were incubated with indicated antibodies and Protein G-sepharose beads overnight at 4° C. The beads were washed five times with lysis buffer. The bound proteins were dissolved in SDS sample buffer, resolved by SDS-PAGE, and blotted with indicated antibodies.

[4] = system: cell lines used in this study; assay: Mitotic arrest phenotype in cell lines; format: cell-based; settings: low or high serum conditions
Excerpt: TNKS1/TNKS2 have been described to regulate mitotic progression, telomere maintenance, and GLUT4 transport. (Canudas, S., et al. (2007) Embo J 26, 4867-78 (2007); Seimiya, H., et al. (2002) J Biol Chem 277, 14116-26) In particular, TNKS1 was proposed to be required for the resolution of sister telomere association or assembly of bipolar spindles, and TNKS1 knockdown was reported to cause strong mitotic arrest.

β-catenin [5] = assay: Immunoblot of β-catenin and phospho-β-catenin in SW480 cells; format: cell-based, human
Protocol: To generate cytosolic lysates, cells were scraped into hypotonic buffer (10 mM Tris-HCl pH7.5, 10 mM KCl), and cell lysates were cleared by centrifugation after four freeze-thaw cycles. In all above experiments, 1× protease inhibitor cocktail (Sigma) and 1× phosphatase inhibitor cocktail (Upstate) were added into lysis buffers. Commercial antibodies used in this study include goat anti-Axin1 antibodies (R&D Systems), rabbit anti-Axin2 antibodies and rabbit anti-phospho-β-catenin (pSer33/37/Thr41) antibodies (Cell Signaling Technology), mouse anti-TNKS antibodies (Abeam), mouse anti-HA (HA.11) antibodies (Covance), mouse anti-β-catenin antibodies, rabbit anti-Poly(ADP-ribose) antibodies, and rabbit anti-PARP1 antibodies (BD Pharmingen), mouse anti-ubiquitin antibody (MBL), rabbit anti-GFP antibodies (Clontech), mouse anti-tubulin and mouse anti-Flag (M2) antibodies (Sigma).

GFP-Axin = assay: PARsylation of exogenously expressed GFP-Axin in cells; format: cell-based, mouse; settings: anti-PAR antibody
Protocol: FIG. 5D. In vivo PARsylation of Axin1. SW480 cells stably expressing GFP-Axin1 under control of the metallothionein promoter were incubated with Cu^2+ overnight to induce expression of GFP-Axin1. […] Lysates were harvested with RIPA buffer containing PARG inhibitor ADP-HPD (5 μM) and PARP1 inhibitor PJ34 (80 μM), immunoprecipitated with GFP antibody and analyzed by immunoblotting.
The SuperTopFlash (STF) methods described in at least Example 1 employed plasmids manufactured as follows: SuperTopflash reporter was generated by inserting twelve TCF binding sites into pTA-Luc (Clontech). Mouse Axin1 and its mutants were fused with either GFP or FLAG epitope at the amino termini and cloned into a retroviral vector under the control of the metallothionein promoter. Human TNKS1/2 and their mutants were tagged with FLAG epitope fused at the amino termini and cloned into a mammalian expression vector under the control of the cytomegalovirus (CMV) promoter. Drosophila Axin fused with three HA epitopes at the carboxyl terminus was cloned in a Drosophila expression vector under the control of the metallothionein promoter. A sequence encoding the amino terminal fragment of mouse Axin1 (a.a. 1-87) was cloned in a Tet-regulated expression vector pcDNA4-TO (Invitrogen). […]

[6] = system: NF-κB luciferase reporter; assay: NF-κB luciferase reporter in HEK293 cells (TNFα activated); format: cell-based
[7] = system: Axin1 and Axin2 transcript; assay: Axin transcript levels (quantitative RT-PCR); settings: after compound treatment
Protocol: Total RNA from compound or siRNA treated cells was extracted using the RNeasy Mini Kit (Qiagen) and reverse transcribed with Taqman Reverse Transcription Reagents (Applied Biosystems) according to the manufacturer's instructions. Transcript levels were assessed using the ABI PRISM 7900HT Sequence Detection System. […] The thermocycling conditions utilized were 2 min at 50° C., 10 min at 95° C., followed by 40 cycles of 15 sec at 95° C. and 1 min at 60° C. All experiments were performed in triplicate. Gene expression analysis was performed using the comparative CT method with the housekeeping gene, GUSB, for normalization.

β-catenin [8] = assay: Immunoblot of cytosolic β-catenin in Wnt3A stimulated HEK293 cells; format: cell-based
Protocol: Cell lysates were fractionated and immunoblotted for cytosolic β-catenin.
To generate cytosolic lysates, cells were scraped into hypotonic buffer (10 mM Tris-HCl pH7.5, 10 mM KCl), and cell lysates were cleared by centrifugation after four freeze-thaw cycles. In all above experiments, 1× protease inhibitor cocktail (Sigma) and 1× phosphatase inhibitor cocktail (Upstate) were added into lysis buffers.

Axin1 and Axin2 [9] = assay: Immunoblot of Axin protein levels after compound treatment; format: cell-based, human; settings: after XAV939 treatment
CRE luciferase reporter = CRE luciferase reporter in HEK293 cells (Forskolin activated); format: cell-based
GFP-Axin1 = GFP-Axin1 fusion construct protein levels in SW480 cell lines; format: cell-based, mouse
Excerpt: FIG. 4E. The TNKS binding domain is required for XAV939-induced Axin1 protein accumulation. […] Total cell lysates were harvested and analyzed by immunoblotting.
The SuperTopFlash (STF) methods described in at least Example 1 employed plasmids manufactured as follows: SuperTopflash reporter was generated by inserting twelve TCF binding sites into pTA-Luc (Clontech). Mouse Axin1 and its mutants were fused with either GFP or FLAG epitope at the amino termini and cloned into a retroviral vector under the control of the metallothionein promoter. Human TNKS1/2 and their mutants were tagged with FLAG epitope fused at the amino termini and cloned into a mammalian expression vector under the control of the cytomegalovirus (CMV) promoter. Drosophila Axin fused with three HA epitopes at the carboxyl terminus was cloned in a Drosophila expression vector under the control of the metallothionein promoter. A sequence encoding the amino terminal fragment of mouse Axin1 (a.a. 1-87) was cloned in a Tet-regulated expression vector pcDNA4-TO (Invitrogen). Several proteins were cloned using Gateway technology (Invitrogen) into the expression vector pDEST15 (Invitrogen, Carlsbad, Calif.): TNKS1-P(1088-1327), TNKS2-P(934-1166), TNKS2-SP (872-1166), PARP1-P (662-1014) and PARP16-P (93-273).
The functional consequences of disrupting the physical interaction between Axin and TNKS were assessed. […]. […] […].

RKO cells = assay: Colony formation assay, RKO cells; format: cell-based; settings: low serum growth conditions, β-catenin independent cells
Protocol: […]. DLD1 and RKO cells were seeded at 500 cells/well in a 6-well plate in medium containing 0.5% serum and indicated compounds, and replenished with fresh medium every two days. Colonies were visualized by crystal violet staining.
as §1

[10] = wash-off experiment, MG132 alone

Chain of C-terminal PARP domain of TNKS2 (GST-TNKS2 PARP) (Q9H2K2 934-1166): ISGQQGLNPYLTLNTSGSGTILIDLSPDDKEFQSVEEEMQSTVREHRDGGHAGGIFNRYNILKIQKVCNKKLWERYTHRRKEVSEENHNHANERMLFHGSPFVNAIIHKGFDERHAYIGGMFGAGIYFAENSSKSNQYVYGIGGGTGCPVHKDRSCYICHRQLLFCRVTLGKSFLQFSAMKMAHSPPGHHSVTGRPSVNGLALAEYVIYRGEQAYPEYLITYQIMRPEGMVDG
Chain of PARP2 (Q9UGN5 whole entry): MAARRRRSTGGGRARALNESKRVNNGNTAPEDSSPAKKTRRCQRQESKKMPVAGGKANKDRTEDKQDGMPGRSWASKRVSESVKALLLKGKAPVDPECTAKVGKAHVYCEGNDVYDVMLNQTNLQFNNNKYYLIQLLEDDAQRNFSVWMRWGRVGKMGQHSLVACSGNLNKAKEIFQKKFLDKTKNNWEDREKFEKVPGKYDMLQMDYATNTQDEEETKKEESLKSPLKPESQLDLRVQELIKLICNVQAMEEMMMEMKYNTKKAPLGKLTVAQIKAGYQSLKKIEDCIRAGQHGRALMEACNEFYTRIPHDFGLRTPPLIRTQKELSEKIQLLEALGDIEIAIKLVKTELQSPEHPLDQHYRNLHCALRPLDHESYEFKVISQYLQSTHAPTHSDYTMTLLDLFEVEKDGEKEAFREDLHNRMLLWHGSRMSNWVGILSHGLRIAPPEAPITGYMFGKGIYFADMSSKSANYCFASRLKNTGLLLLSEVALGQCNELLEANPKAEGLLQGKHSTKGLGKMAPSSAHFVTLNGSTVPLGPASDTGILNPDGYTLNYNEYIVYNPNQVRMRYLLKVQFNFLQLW

CC(=O)N1CCc2nc(-c3ccc(C(F)(F)F)cc3)[nH]c(=O)c2C1 [LDW643]
colony formation of DLD-1 cells (DLD-1 cells): did not affect
activity in compound competition, PARP1/2 binding (PARP1/2): no activity
activity in compound competition, TNKS binding (TNKS): no activity
auto-PARsylation of GST-TNKS2 PARP [1]: not affected
Wnt3A stimulated STF activity [2]: no activity

CC(C)C[C@@H](C=O)NC(=O)[C@H](CC(C)C)NC(=O)[C@H](CC(C)C)NC(=O)OCc1ccccc1 [MG132] (Cbz-Leu-Leu-Leu-aldehyde)
poly-ubiquitination of Axin1 (Axin1 and Axin2 [3]; MG132 alone): increased significantly
Axin2 degradation after XAV939 wash-off (Axin1 and Axin2 [3]; [10]): blocked
Axin2 poly-ubiquitination after XAV939 wash-off (Axin1 and Axin2 [3]; [10]): strongly increased

Oc1nc(-c2ccc(C(F)(F)F)cc2)nc2c1CSCC2 [XAV939]
effect on TGFβ luciferase reporter (TGFβ luciferase reporter): did not affect
binding displacement (% competition) PARP2 (PARP2): 88%
colony formation of DLD-1 cells (DLD-1 cells): significantly inhibited
anti-PAR antibody reactive signal co-migrating with Axin2 (Axin2): disappeared
Axin-GSK3β complex formation (Axin-GSK3β complex): strong increase
mitotic arrest phenotype [4]: did not result in any overt mitotic arrest phenotype
β-catenin abundance (β-catenin [5]): decreased
β-catenin phosphorylation (S33/S37/T41) (β-catenin [5]): significantly increased
PARsylation signal of GFP-Axin in cells (GFP-Axin): strongly reduced
effect on NF-κB luciferase reporter [6]: did not affect
transcript levels of Axin1 and Axin2 [7]: unaffected
Wnt3A-induced accumulation of β-catenin (β-catenin [8]): block
Axin1 and Axin2 poly-ubiquitination (Axin1 and Axin2 [3]; co-treatment of XAV939 with MG132): significantly diminished
ubiquitination of Axin2 (Axin1 and Axin2 [3]; wash-off experiment, co-treatment with XAV939 and MG132): completely blocked
protein levels of Axin1 and Axin2 (Axin1 and Axin2 [9]): strongly increased
effect on CRE luciferase reporter (CRE luciferase reporter): did not affect
GFP-Axin1Δ19-30 protein levels (GFP-Axin1; cells expressing GFP-Axin1Δ19-30 (TBD deleted)): did not further respond
wild-type GFP-Axin1 protein levels (GFP-Axin1; cells expressing wild-type GFP-Axin1): strongly increased
colony formation in RKO cells (RKO cells): did not affect
